Experimental data reported in ChEMBL document CHEMBL3507680, “University of Dundee, Gates Library screen for HepG2 cell viability”.

Experiment: Human HepG2 cell viability assay in 384 well format
Type: toxicity, cell-based
Parameters: dose 125 nL, time 70.5 hour; concentration not given beside the values
Conditions: HepG2 cells, read-out: Inhibition

| Compound | cytotoxicity at 70.5 h [%] |
| --- | --- |
| COc1ccc(C(=O)N2CCC(Nc3cccnn3)CC2)c(F)c1 | -3.14 |
| COCCCN1CCC(c2nc3c([nH]2)CC(C)(C)CNC3=O)C1 (stereo unspecified) | -5.24 |
| Cn1ccc(C(=O)N2C[C@@H]3CN(CC4CC4)CCO[C@@H]3C2)n1 | 11.6 |
| O=C(c1ccoc1)N1Cc2cnn(CC3CC3)c2C(COCC2CC2)C1 (stereo unspecified) | 16 |
| Cc1nnsc1C(=O)N1CCCC(c2nccn2Cc2cscn2)C1 (stereo unspecified) | -0.672 |
| CCN1C(=O)C[C@@H]2[C@@H]1CCN2S(=O)(=O)Cc1ccc(C)cc1 | 1.97 |
| O=C(NCCN1CCCCC1)c1nc(-c2cccc3[nH]ccc23)no1 | 13.5 |
| Cc1noc(C)c1CN1CCc2ncnc(-c3cnn(C)c3)c2CC1 | -8.16 |
| CSc1ccc(C)c(C(=O)N2CCCC(n3cncn3)C2)c1 (stereo unspecified) | -2.61 |
| c1cc2ccc(N3CCN(Cc4ccc5c(c4)OCO5)CC3)nc2[nH]1 | -4.53 |
| O=C(N1CCCO1)[C@@]12CCO[C@@H]1CCN(Cc1ccsc1)C2 | -6.2 |
| COc1ccccc1C1CNC(=O)c2nc(-c3c(C)n[nH]c3C)[nH]c2C1 (stereo unspecified) | -4.74 |
| COc1ccc(CCNC(=O)NCC(O)c2cccc(F)c2)cc1 (stereo unspecified) | 8.74 |
| Cc1nc(N2CCCN(C(=O)c3ccsc3)CC2)c2cnn(C)c2n1 | -2.94 |
| O=C(CC1CCCC1)N1CCC(c2noc(-c3ccccn3)n2)CC1 | 6.76 |
| COCCCOc1ccc(C(=O)N(C)CCC(C)C)cn1 | 20.8 |
| CCC(C)NC(=O)CS(=O)(=O)Cc1cc(Cl)ccc1OC (stereo unspecified) | -12 |
| O=C(CO)N1CCc2onc(Cn3cccn3)c2C1 | -13.8 |
| c1ccc(-c2ccc(CN3CCOC(Cn4cncn4)C3)cc2)cc1 (stereo unspecified) | 22 |
| CCC[C@@H]1CN(Cc2ccc(C(F)(F)F)nc2)C[C@H]1NS(C)(=O)=O | 11.1 |
| CCc1nc(CNC(=O)C2CCC(=O)N(Cc3ccccc3F)C2)no1 (stereo unspecified) | -8.67 |
| Cc1ccnc(NCC2(N(C)C)CCOCC2)n1 | -2.1 |
| C1CCC(CNC2CCCN(Cc3noc(C4CC4)n3)C2)CC1 (stereo unspecified) | -15.3 |

| Compound | cytotoxicity at 70.5 h [%] |
| --- | --- |
| CN(C(=O)c1cccnc1)C1CCCN(CCc2ccccc2)C1 (stereo unspecified) | -5.02 |
| COc1cccc(CN2CCCC(c3cc(C(N)=O)[nH]n3)C2)c1 (stereo unspecified) | -12.6 |
| CCN1C(=O)[C@]2(CC[C@@H]3CN(C(=O)Nc4ccc(F)cc4)C[C@@H]32)N=C1C | -77.4 |
| CCn1cnnc1C1CCN(C(=O)c2cc(C)n(CC)c2C)CC1 | -5.03 |
| CCC(C)NC(=O)c1nnn(-c2ccc(Br)cc2)n1 (stereo unspecified) | 5.21 |
| CC1=N[C@@]2(CC[C@@H]3CN(CC4CC4)C[C@@H]32)C(=O)N1CC(C)C | -15.3 |
| CC(C)NC(=O)N1C[C@H]2C[C@H](C(=O)NCc3ccccc3)[C@@H](C1)O2 | -5.16 |
| O=C1CC(c2cccc(O)c2)c2c(c(C(=O)O)cn2-c2ccccc2)N1 (stereo unspecified) | 4.21 |
| N[C@@H]1CCN(Cc2ccc(-c3nc(-c4cccnc4)cc(=O)[nH]3)cc2)C1 | -10.8 |
| CCc1noc(CN(C)C(=O)COc2cc(Cl)cc(Cl)c2)n1 | 1.61 |
| CC1=N[C@@]2(CC[C@@H]3CN(CC4CC4)C[C@@H]32)C(=O)N1CC1CC1 | -13.6 |
| NCc1csc(CCc2ccccc2)n1 | -8.04 |
| CS(=O)(=O)NC1CCCN(C(=O)c2cccnc2)C1 (stereo unspecified) | -8.57 |
| C=C(C)Cn1c(=O)nc(N)c2c(-c3ccc(OC)cc3)csc21 | -9.64 |
| COc1ccc(CN2CCN(C(=O)c3ccc(C)n3C)CC2)cc1 | -11.9 |
| COc1ccc(NC(=O)N(CCO)Cc2ccsc2)cc1 | -3.63 |
| CCc1nc(CN2CCCC(N(C)CCc3cccs3)C2)no1 (stereo unspecified) | 21.1 |
| Cc1cc(C(=O)NC2CCc3c(ccc(=O)n3CC3CC3)C2)no1 (stereo unspecified) | -6.82 |
| COC(=O)c1cc(C(=O)N2CCN(C)CC2)n(-c2ccccc2)n1 | -6.12 |
| COc1cc2c(cc1OC)S(=O)(=O)N(Cc1ccc(C)cc1)C2=O | -14.5 |
| O=C(c1csc(C2CC2)n1)N1CCCC1Cn1cccn1 (stereo unspecified) | 0.252 |
| CN(C)[C@@H]1CO[C@H](CNC(=O)CC(C)(C)C)[C@H]1O | -0.485 |
| CC(O)CN1CCC(=O)N(Cc2ccccc2)Cc2ccccc21 (stereo unspecified) | 21.2 |

| Compound | cytotoxicity at 70.5 h [%] |
| --- | --- |
| CCC(=O)NC(c1ccc(C)cc1)c1cccc(S(C)(=O)=O)c1 (stereo unspecified) | -11.9 |
| CNC(=O)c1cc(-c2ccccc2OC)[nH]n1 | -5.34 |
| CC(=O)Nc1ccc(CCC2(NC(=O)C3CCCO3)CCCCC2)cn1 (stereo unspecified) | -0.834 |
| CCn1ccnc1CN1CCC(N(C)Cc2ncc(C)o2)C1 (stereo unspecified) | 20.1 |
| COc1cccc(OC)c1CC(=O)NC(C#N)c1ccsc1 (stereo unspecified) | -12.5 |
| NC(=O)c1ccccc1NC(=O)CCN1CCN(c2ccccc2)CC1 | -9.88 |
| C=C(C)CN(CC)C(=O)CN1CCCC1C(=O)N(C)C (stereo unspecified) | -4.6 |
| Cc1ncc(C(=O)N2CCC(N3CCc4ccccc4C3)CC2)c(O)n1 | 2.23 |
| COCCOc1ccc(NC(=O)C2CC(=O)N(C)C2)cn1 (stereo unspecified) | -4.68 |
| COCCN(CCOC)C(=O)c1ccn(-c2ccccc2Cl)n1 | 17.5 |
| O=C(CNC(=O)C1CC1)NCC1CCCC1 | 4.06 |
| O[C@H]1CN(Cc2ccnc(N3CCCC3)n2)CC[C@@]12CCCO2 | -9.21 |
| Cc1cc(C)n(CC2CN(Cc3cccc(C#N)c3)CCO2)n1 (stereo unspecified) | -3.79 |
| CCOc1ccc(Cl)c(C(=O)N2CCN(C(=O)OC)CC2)n1 | -14.3 |
| Cc1cc(C(=O)N2CCNC(=O)CC2)c(C)n1CC(F)(F)F | 23.5 |
| CCN1CCCC(c2c(-c3ccccc3)ncn2Cc2csc(N)n2)C1 (stereo unspecified) | -0.765 |
| Cc1noc(CCCC(=O)N2CCN(C)CC2c2ccccc2)n1 (stereo unspecified) | 29.2 |
| CC(C)[C@H]1COC(=O)N1CC(=O)N1CCN(C(=O)c2ccco2)CC1 | 8.43 |
| Cc1nn2c(NCC(=O)NC3CC3)cc(-c3ccccc3)nc2c1C | -2.36 |
| Cc1ncnc2c1CCN(Cc1cccs1)CC2 | 22.9 |
| c1cnc(-c2nc(C3CCOC3)no2)cn1 (stereo unspecified) | -3.44 |
| CCOC(=O)[C@]12CCCN(Cc3nccs3)C[C@H]1CN(CCOC)C2 | -1.13 |
| Cn1ccnc1CNC(=O)c1cnc(C2CCNCC2)cn1 | 28.1 |

| Compound | cytotoxicity at 70.5 h [%] |
| --- | --- |
| COCCn1cc(CC(=O)Nc2nc3c(s2)CCC3)c2ccccc21 | -6.21 |
| Cc1ccc(CNC(=O)Cc2c(C)nc3c(c2C)c(=O)[nH]n3C)cc1 | 4.93 |
| CCSc1cc(C(=O)N(CC(F)F)C(C)C)ccn1 | -3.2 |
| COc1ccc(CCn2ccnc2-c2cc3n(n2)CCCNC3)cc1 | -10.7 |
| O=C1CC2(CCN(Cc3ccoc3)C2)CN1c1ccc2c(c1)OCO2 (stereo unspecified) | 3.34 |
| COc1ccccc1[C@@H]1CN(Cc2cnc(N(C)C)nc2)C[C@H]1C(=O)O | -6.22 |
| COc1cccc2c3c(c(=O)[nH]c12)CCO3 | 3.58 |
| Cc1ccc(C(C)(O)CNC(=O)c2sccc2OC(F)F)o1 (stereo unspecified) | -12 |
| Cc1nnc(C[C@@H]2COC[C@H]3CN(C(=O)c4ccco4)C[C@@H]23)o1 | -9.01 |
| CCc1ncncc1C(=O)N1CCCN(Cc2ccccc2C)CC1 | -8.2 |
| COC(=O)CNC(=O)Cn1ccc2ccc(F)cc21 | -3.86 |
| CNc1ncc(CN(C)c2nccc(CCC(F)(F)F)n2)cn1 | -2.35 |
| O[C@@H]1C[C@H]2CN(Cc3ccccc3)[C@H](Cc3ccccc3)CN2C1 | 27.4 |
| COC1CCN(C(=O)C2CC(=O)N(c3ccccc3Br)C2)CC1 (stereo unspecified) | -8.26 |
| Cc1cc(C(F)(F)F)cc(=O)n1CCCn1cnnn1 | -11.2 |
| CN(C)c1ccc(NC(=O)NCc2ccccn2)cn1 | -13.6 |
| O=C(c1cnc(C2CC2)nc1)N1CCC(N2CCC(O)CC2)CC1 | 14.2 |
| Cc1ccc(OC2CCN(CCn3cncn3)CC2)cc1 | -10.7 |
| CC(=O)N1CCC(N2CCOC[C@H]2c2nc(C(C)(C)C)c[nH]2)CC1 | -2.09 |
| Cc1nc(C)n(C2CCCN(C(=O)c3cc(C(N)=O)cs3)C2)n1 (stereo unspecified) | -17.1 |
| Cc1nc(C)c(C(=O)N(C)Cc2cnn(C)c2)s1 | 1.01 |
| COc1ccc(CN2CCC3(CC2)CN(c2ccccn2)CCO3)cc1 | 2.33 |
| O[C@@H]1CN(Cc2cc(Cl)cc3cccnc23)C[C@@H]1O | -4.72 |

| Compound | cytotoxicity at 70.5 h [%] |
| --- | --- |
| CCN1CCC12CCN(C(=O)c1ccsc1)C2 (stereo unspecified) | -12.4 |
| CS(=O)(=O)CCC(=O)Nc1cc(Cl)c(Cl)cn1 | 26.6 |
| COc1ccc(CN2CCOC[C@H](Oc3cccnc3)C2)cc1 | 4.36 |
| Cn1nccc1CCC(=O)N1CCCC(c2cnccn2)C1 (stereo unspecified) | 12.9 |
| Cc1cnn(CC2CN(c3ncnc4ccsc34)CCO2)c1 (stereo unspecified) | 16 |
| Cc1ccc(CNC(=O)NC2CCCN(c3ncccn3)C2)cn1 (stereo unspecified) | -10 |
| O=C(c1cccc(Cl)c1F)N1CCOC2(CNCCOC2)C1 (stereo unspecified) | 32.2 |
| Cc1ccc(C)c(OC2CCN(C(=O)CNc3ccccc3Cl)CC2)c1 | 24.6 |
| Cc1n[nH]c(C)c1C(N)C(=O)NCCc1csc(C(C)C)n1 (stereo unspecified) | -11.3 |
| COC(=O)c1cc(OCC2CCC2)cc(C(=O)N[C@@H](C)CO)c1 | -22.2 |
| CC1(c2nccs2)CCN(C(=O)CCN2CCOCC2)CC1 | -1.94 |
| Cc1ccccc1OC1CCN(CC(=O)Nc2ccn(C)n2)CC1 | -7.79 |
| N#Cc1ccc(N2CCN(c3cnccn3)CC2)c(C(F)(F)F)c1 | 2.94 |
| O=C(NC[C@H]1C[C@@H]2CCN1C[C@@H]2CN1CCCCC1)c1ccco1 | 0.157 |
| CCC[C@H]1CN(Cc2cc(C#N)n(C)c2C)C[C@@H]1N(C)C | -7.07 |
| CCC1=N[C@@]2(CC[C@@H]3CN(C(=O)Nc4ccccc4)C[C@@H]32)C(=O)N1CC | -85.5 |
| CS(=O)(=O)CC1(CNc2c(C#N)cnc3ccc(Cl)cc23)CC1 | -5.19 |
| CC(=O)CN1CCC2(CC1)c1ccccc1[C@@H](N1CCSCC1)[C@@H]2O | -5.27 |
| CCc1cc(N(C)Cc2ccnc(C)c2)n2nc(C)c(C)c2n1 | 40.9 |
